From patent US20130317045A1, “THIENOPYRIDINE AND THIENOPYRIMIDINE COMPOUNDS AND METHODS OF USE THEREOF” (AMBIT BIOSCIENCES CORPORATION, priority 2010, published 2013) come the findings set out here.

For one experiment, the target named is T1, JAK3 (Homo sapiens, UniProt P52333).
T1 construct: made in house
T1 sequence (P52333 1-1124): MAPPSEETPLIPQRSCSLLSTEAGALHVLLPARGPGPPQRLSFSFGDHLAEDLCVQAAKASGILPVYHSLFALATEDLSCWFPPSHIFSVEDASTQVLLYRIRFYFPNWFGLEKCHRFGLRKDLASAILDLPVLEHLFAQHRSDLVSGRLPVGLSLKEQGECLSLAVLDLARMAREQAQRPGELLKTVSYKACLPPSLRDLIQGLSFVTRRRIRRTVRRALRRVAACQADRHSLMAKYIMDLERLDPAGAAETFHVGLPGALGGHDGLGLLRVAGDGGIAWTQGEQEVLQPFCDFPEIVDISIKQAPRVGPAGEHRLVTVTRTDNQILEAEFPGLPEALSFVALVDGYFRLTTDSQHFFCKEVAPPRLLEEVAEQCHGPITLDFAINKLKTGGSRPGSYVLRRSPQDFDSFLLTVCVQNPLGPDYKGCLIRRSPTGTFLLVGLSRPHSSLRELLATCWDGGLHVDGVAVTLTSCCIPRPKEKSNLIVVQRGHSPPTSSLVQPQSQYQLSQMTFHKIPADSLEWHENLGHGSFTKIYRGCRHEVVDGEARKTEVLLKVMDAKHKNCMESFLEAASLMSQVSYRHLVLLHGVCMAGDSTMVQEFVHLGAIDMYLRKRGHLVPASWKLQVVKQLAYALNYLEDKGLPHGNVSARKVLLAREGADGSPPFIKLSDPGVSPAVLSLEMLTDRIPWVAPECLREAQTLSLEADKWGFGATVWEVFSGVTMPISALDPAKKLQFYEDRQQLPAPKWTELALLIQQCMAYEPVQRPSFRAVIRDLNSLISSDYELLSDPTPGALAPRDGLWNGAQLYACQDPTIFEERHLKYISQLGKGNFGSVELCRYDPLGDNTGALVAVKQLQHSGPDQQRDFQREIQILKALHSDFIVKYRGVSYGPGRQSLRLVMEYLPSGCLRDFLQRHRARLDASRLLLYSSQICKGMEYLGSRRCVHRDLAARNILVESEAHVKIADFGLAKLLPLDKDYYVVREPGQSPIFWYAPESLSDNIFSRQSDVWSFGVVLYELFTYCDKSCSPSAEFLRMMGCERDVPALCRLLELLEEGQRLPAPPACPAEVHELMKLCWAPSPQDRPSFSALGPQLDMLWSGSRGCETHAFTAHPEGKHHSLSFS
The experiment in a line: Competition binding assay, JAK3. An excerpt:
(§1) Competition Binding Assay to Determine Binding Constants (Kd) of the Compounds Against JAK Kinases
(§2) Competition binding assays used herein were developed, validated and performed as described in Fabian et al., Nature Biotechnology 2005, 23,329-336. Kinases were produced as fusions to T7 phage (See, Fabian et al. or WO04/015142) or alternatively, the kinases were expressed in HEK-293 cells and subsequently tagged with DNA for PCR detection (See, WO08/005310). For the binding assays, streptavidin-coated magnetic beads were treated with biotinylated affinity ligands for 30 min at rt to generate affinity resins. The liganded beads were blocked with excess biotin and washed with blocking buffer (SeaBlock (Pierce), 1% BSA, 0.05% Tween 20, 1 mM DTT) to remove unbound ligand and to reduce non-specific binding. Binding reactions were assembled by combining kinase, liganded affinity beads, and test compounds in 1× binding buffer (20% SeaBlock, 0.17×PBS, 0.05% Tween 20, 6 mM DTT). Test compounds were prepared as 100× stocks in DMSO and rapidly diluted into the aqueous environment. DMSO was added to control assays lacking a test compound. Primary screen interactions were performed in polypropylene 384-well plates in a final volume of 34 μL, while Kd determinations were performed in polystyrene 96-well plates in a final volume of 135 μL. The assay plates were incubated at room temperature with shaking for 1 hour, long enough for binding reactions to reach equilibrium, and the affinity beads were washed extensively with wash buffer (1× PBS, 0.05% Tween 20) to remove unbound protein. The beads were then resuspended in elution buffer (1× PBS, 0.05% Tween 20, 2 μM non-biotinylated affinity ligand) and incubated at room temperature with shaking for 30 min. The kinase concentration in the eluates was measured by quantitative PCR. Each kinase was tested individually against each compound. Kds were determined using eleven serial threefold dilutions. A selectivity score, which is a quantitative measure of selectivity of a compound against a panel of enzymes, may be calculated for a compound by dividing the number of enzymes for which a compound meets a set criteria, (for example, a binding constant of 100 nM or less), by the total number of enzymes tested.

For experiment [1], the system named is distinct kinases tested excluding mutant variants, typically 359 or 386 kinases. Description: Kinase selectivity score from competition binding panel. The note with it: compound at 10 μM; fraction of kinases with inhibition of 90% or greater. Here is the method: as §2
A further experiment addresses T2, TYK2 (Homo sapiens, UniProt P29597).
T2 construct: made in house
Description: Competition binding assay, TYK2.
Description: as §1, §2

Experiment [2] concerns GM-CSFR/JAK2/STAT5 pathway in CSTF-1 cells. The experiment in a line: CSTF-1 cell-based reporter assay (beta-lactamase, GM-CSF stimulated). The note with it: Homo sapiens; GM-CSF at 2 ng/mL, 4 hours; read-out: Cell Assay: CS TF-1 reporter assay IC50. More on the design: species or system human. As for the experimental part:
CSTF-1 Cell-Based Reporter Assay
CSTF-1 cells are derived from the human erythroleukemia cell line that is growth dependent on GM-CSF and has an intact GM-CSFR/JAK2/STAT5 pathway. The cell line contains stably integrated beta-lactamase reporter gene under the control of the […] (irf 1) response element recognized by the activated transcription factor STATS. csTF-1 cells (Invitrogen K1219) were washed with assay media (97% OPTIMEM/ 0.5% dialyzed FBS/0.1 mM NEAA/1 mM Na pyr/P/S) and seeded in the same media at 5×10^5 cell/mL in T150 flask. After 16 hour incubation, cells were seeded at 2×10^5 cell/well in 50 μl volume, into Costar, clear bottom, 96-well assay plates. Serial dilutions of compounds were added to the plates with final DMSO concentration at 0.5% and GM-CSF at 2 ng/mL and the plates were then incubated at […] and 5% CO2 for 4 hours. The plates were brought to room temperature before adding Substrate Mixture according to manufacturer's protocol (Invitrogen, Catalog #K1085). The assay plates containing the substrate mixture were incubated in the dark at room temperature for 2 hours. Blue and green fluorescence was measured with excitation at 409 nm and emission at 460 nm (for blue) and excitation at 409 nm and emission at 530 nm (for green) using Spectra Max Gemini EM.
On the technique in general: A reporter such as luciferase makes a cellular process visible.

For a further experiment, the target named is T3, JAK2 (Homo sapiens, UniProt O60674).
T3 construct: made in house
T3 sequence (O60674 whole entry): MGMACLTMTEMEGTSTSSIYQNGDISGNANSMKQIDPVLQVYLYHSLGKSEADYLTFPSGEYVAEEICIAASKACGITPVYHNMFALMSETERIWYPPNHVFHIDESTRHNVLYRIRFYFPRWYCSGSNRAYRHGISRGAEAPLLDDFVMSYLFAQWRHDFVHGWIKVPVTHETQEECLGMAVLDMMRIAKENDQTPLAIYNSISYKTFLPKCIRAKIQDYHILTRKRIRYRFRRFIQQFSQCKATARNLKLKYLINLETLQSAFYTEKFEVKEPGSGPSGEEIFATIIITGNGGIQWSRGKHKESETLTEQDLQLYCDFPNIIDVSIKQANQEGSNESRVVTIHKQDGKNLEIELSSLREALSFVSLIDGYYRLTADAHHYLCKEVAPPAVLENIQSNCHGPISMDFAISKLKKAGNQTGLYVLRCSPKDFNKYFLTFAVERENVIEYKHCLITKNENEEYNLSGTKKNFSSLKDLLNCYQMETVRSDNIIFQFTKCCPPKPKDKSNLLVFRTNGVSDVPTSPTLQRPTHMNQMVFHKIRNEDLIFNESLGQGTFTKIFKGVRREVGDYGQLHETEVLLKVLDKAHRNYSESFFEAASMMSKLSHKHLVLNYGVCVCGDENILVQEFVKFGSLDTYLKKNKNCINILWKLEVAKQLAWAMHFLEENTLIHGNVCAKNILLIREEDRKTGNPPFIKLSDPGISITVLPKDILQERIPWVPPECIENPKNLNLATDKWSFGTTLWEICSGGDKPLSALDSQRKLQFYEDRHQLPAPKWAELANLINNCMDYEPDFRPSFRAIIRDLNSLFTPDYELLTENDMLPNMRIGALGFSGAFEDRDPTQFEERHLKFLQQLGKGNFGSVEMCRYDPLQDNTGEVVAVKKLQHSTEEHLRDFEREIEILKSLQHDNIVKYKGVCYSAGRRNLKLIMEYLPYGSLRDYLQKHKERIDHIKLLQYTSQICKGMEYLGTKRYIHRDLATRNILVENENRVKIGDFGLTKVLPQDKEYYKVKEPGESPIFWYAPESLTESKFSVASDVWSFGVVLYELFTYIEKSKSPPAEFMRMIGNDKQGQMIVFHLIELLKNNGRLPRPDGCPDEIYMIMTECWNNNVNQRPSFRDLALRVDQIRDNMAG
The experiment in a line: Competition binding assay, JAK2.
Description: as §1, §2

Some results are limits rather than exact numbers.

T2 sequence (P29597 whole entry): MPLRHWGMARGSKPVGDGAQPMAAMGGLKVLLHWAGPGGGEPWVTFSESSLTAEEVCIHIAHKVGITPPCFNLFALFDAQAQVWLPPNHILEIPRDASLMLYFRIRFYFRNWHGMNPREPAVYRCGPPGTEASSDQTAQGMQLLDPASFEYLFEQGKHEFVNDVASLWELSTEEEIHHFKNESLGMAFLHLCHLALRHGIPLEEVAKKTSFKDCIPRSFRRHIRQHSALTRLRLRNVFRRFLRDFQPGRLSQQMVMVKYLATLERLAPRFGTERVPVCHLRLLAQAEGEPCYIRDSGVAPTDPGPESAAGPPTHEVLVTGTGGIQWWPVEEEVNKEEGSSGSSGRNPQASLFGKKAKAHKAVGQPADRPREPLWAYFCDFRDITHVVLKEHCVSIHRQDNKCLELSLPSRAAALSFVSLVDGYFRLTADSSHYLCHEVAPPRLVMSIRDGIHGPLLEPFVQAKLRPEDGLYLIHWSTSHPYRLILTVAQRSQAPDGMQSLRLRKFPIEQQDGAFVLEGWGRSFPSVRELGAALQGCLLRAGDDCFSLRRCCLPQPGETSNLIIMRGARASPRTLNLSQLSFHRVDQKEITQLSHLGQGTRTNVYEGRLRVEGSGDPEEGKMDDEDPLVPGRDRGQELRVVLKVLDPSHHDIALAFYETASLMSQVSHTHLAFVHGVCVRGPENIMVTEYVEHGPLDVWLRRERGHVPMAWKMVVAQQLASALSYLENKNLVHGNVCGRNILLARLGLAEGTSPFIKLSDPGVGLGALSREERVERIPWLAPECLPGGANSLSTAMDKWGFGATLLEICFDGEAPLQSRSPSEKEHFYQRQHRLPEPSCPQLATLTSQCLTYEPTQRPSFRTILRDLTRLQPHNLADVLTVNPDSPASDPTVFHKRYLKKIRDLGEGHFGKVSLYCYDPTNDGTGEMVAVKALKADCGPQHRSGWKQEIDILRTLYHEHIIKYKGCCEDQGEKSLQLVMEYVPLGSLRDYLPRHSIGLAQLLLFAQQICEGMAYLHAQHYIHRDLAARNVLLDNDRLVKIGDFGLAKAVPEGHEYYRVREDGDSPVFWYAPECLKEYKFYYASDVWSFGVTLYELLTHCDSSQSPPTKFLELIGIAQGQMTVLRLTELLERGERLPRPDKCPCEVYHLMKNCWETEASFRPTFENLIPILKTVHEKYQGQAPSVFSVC

For orientation: Kd means the constant that tells how readily two partners part at equilibrium. A word on the IC50: it is the point on the concentration scale where inhibition reaches its midpoint. As to `Cc1cc(Nc2nc(C(F)(F)c3ccc(F)cc3)nc3sccc23)n[nH]1` [Example 1, 2-(difluoro(4-fluorophenyl)methyl)-N-(5-methyl-1H-pyrazol-3-yl)thieno[2,3-d]pyrimidin-4-amine], the Kd on JAK3 was at most 10 nM; at TYK2 it was at most 10 nM; on JAK2, at most 1 nM. Further, the “S-Score: S(10) at 10 μM” value in experiment [1] was “B (0.3 < B ≦ 0.4)”. The IC50 in experiment [2] was at most 100 nM.
For `Fc1ccc(C(F)(F)c2nc(Nc3cc[nH]n3)c3ccsc3n2)cc1` [Example 2, 2-(difluoro(4-fluorophenyl)methyl)-N-(1H-pyrazol-3-yl)thieno[2,3-d]pyrimidin-4-amine], the figures for the Kd on JAK3, on TYK2 and at JAK2 were 10 to 100 nM, at most 10 nM and at most 1 nM, respectively. Besides, the “S-Score: S(10) at 10 μM” value in experiment [1] is given as “A (A ≦ 0.3)”. Further, in experiment [2], the half-maximal inhibitory concentration (IC50) is at most 100 nM.
On to `Cc1cc(Nc2nc(C(=O)c3ccc(F)cc3)nc3sccc23)n[nH]1` [Example 3, (4-fluorophenyl)(4-(5-methyl-1H-pyrazol-3-ylamino)thieno[2,3-d]pyrimidin-2-yl)methanone], for which the Kd at JAK3 was at most 10 nM; on TYK2 it was 10 to 100 nM; on JAK2 it was at most 1 nM. Moreover, the “S-Score: S(10) at 10 μM” value in experiment [1] is recorded as “B (0.3 < B ≦ 0.4)”. In experiment [2], the IC50 is at most 100 nM.
Regarding `Cc1cc(Nc2nc(C(=O)c3ccc(F)cc3)nc3ccsc23)n[nH]1` [Example 5, (4-fluorophenyl)(4-(5-methyl-1H-pyrazol-3-ylamino)thieno[3,2-d]pyrimidin-2-yl)methanone], the Kd is at most 10 nM on JAK3, 10 to 100 nM at TYK2 and at most 1 nM on JAK2. For the same molecule, the “S-Score: S(10) at 10 μM” value in experiment [1] is reported as “A (A ≦ 0.3)”. In experiment [2], the IC50 is at most 100 nM.
On the same counts, the results for `Cc1cc(Nc2nc(C(F)(F)c3ccc(F)cc3)nc3ccsc23)n[nH]1` [Example 7, 2-(difluoro(4-fluorophenyl)methyl)-N-(5-methyl-1H-pyrazol-3-yl)thieno[3,2-d]pyrimidin-4-amine] are at most 10 nM, at most 10 nM, at most 1 nM, “C (0.4 < C ≦ 0.5)” and at most 100 nM.
On to `Fc1ccc(C(F)(F)c2nc(Nc3cc[nH]n3)c3sccc3n2)cc1` [Example 8, 2-(difluoro(4-fluorophenyl)methyl)-N-(1H-pyrazol-3-yl)thieno[3,2-d]pyrimidin-4-amine], for which the results for the Kd at JAK3, at TYK2 and on JAK2 were 10 to 100 nM, at most 10 nM and at most 1 nM, respectively. Besides, the “S-Score: S(10) at 10 μM” value in experiment [1] is on record as “A (A ≦ 0.3)”. For the same molecule, the IC50 in experiment [2] was at most 100 nM.
On the same counts, the results for `Cc1cc(Nc2nc(C(=O)c3ccc(F)cc3)nc3scc(C)c23)n[nH]1` [Example 10, (4-fluorophenyl)(5-methyl-4-(5-methyl-1H-pyrazol-3-ylamino)thieno[2,3-d]pyrimidin-2-yl)methanone] are above 100 nM, above 100 nM, above 10 nM, “A (A ≦ 0.3)” and above 500 nM.
`Cc1csc2nc(C(=O)c3ccc(F)cc3)nc(Nc3cc[nH]n3)c12` [Example 12, (4-(1H-pyrazol-3-ylamino)-5-methylthieno[2,3-d]pyrimidin-2-yl)(4-fluorophenyl)methanone]: the Kd was above 100 nM on JAK3, above 100 nM on TYK2 and above 10 nM on JAK2. In experiment [1], the “S-Score: S(10) at 10 μM” value is “A (A ≦ 0.3)”. For the same molecule, in experiment [2], the IC50 is above 500 nM.
As for `Cc1cc(Nc2nc(C(F)(F)c3ccc(F)cc3)nc3sc(C)cc23)n[nH]1` [Example 14, 2-(difluoro(4-fluorophenyl)methyl)-6-methyl-N-(5-methyl-1H-pyrazol-3-yl)thieno[2,3-d]pyrimidin-4-amine], the Kd on JAK3 is 10 to 100 nM; at TYK2, at most 10 nM; on JAK2, at most 1 nM. Moreover, in experiment [1], the “S-Score: S(10) at 10 μM” value is “A (A ≦ 0.3)”. In experiment [2], the IC50 was at most 100 nM.
The corresponding values for `Cc1cc2c(Nc3cc[nH]n3)nc(C(F)(F)c3ccc(F)cc3)nc2s1` [Example 15, 2-(difluoro(4-fluorophenyl)methyl)-6-methyl-N-(1H-pyrazol-3-yl)thieno[2,3-d]pyrimidin-4-amine] are 10 to 100 nM, above 100 nM, 1 to 10 nM, “A (A ≦ 0.3)” and 100 to 500 nM.
As to `COC(c1ccc(F)cc1)c1nc(Nc2cc(C)[nH]n2)c2sccc2n1` (centres unmarked) [Example 19, 2-((4-fluorophenyl)(methoxy)methyl)-N-(5-methyl-1H-pyrazol-3-yl)thieno[3,2-d]pyrimidin-4-amine], the Kd fell in the range of 10 to 100 nM on JAK3, 10 to 100 nM on TYK2 and 1 to 10 nM on JAK2. In experiment [1], the “S-Score: S(10) at 10 μM” value was “A (A ≦ 0.3)”. Moreover, the IC50 in experiment [2] lay within 100 to 500 nM.
Take `Cc1cc(Nc2nc(C(=O)c3ccc(F)cc3)nc3cc(C)sc23)n[nH]1` [Example 20, (4-fluorophenyl)(6-methyl-4-(5-methyl-1H-pyrazol-3-ylamino)thieno[3,2-d]pyrimidin-2-yl)methanone]: the figures for the Kd on JAK3, on TYK2 and at JAK2 were at most 10 nM, 10 to 100 nM and at most 1 nM, respectively. Also, the “S-Score: S(10) at 10 μM” value in experiment [1] was “B (0.3 < B ≦ 0.4)”. Also, the IC50 in experiment [2] is at most 100 nM.
With `Cc1cc(Nc2nc(C(=O)c3ccc(F)cc3)nc3c(C)csc23)n[nH]1` [Example 22, (4-fluorophenyl)(7-methyl-4-(5-methyl-1H-pyrazol-3-ylamino)thieno[3,2-d]pyrimidin-2-yl)methanone], the Kd was above 100 nM at JAK3, above 100 nM on TYK2 and 1 to 10 nM at JAK2. Besides, the “S-Score: S(10) at 10 μM” value in experiment [1] is “A (A ≦ 0.3)”. The IC50 in experiment [2] fell in the range of 100 to 500 nM.
